Laboratory results published in paper PMC6923765, “Structural Design, Synthesis, and Preliminary Biological Evaluation of Novel Dihomooxacalix[4]arene-Based Anti-tumor Agents” (Frontiers in Chemistry, 2019).

Experiments:
[1] = tested on: MCF-7 cells (human breast cancer cells); assay: SRB cytotoxicity assay, MCF-7 cells; assay type: cell-based; conditions: SRB; for inhibition at 10 µM: MCF7, 10 μM, 72 h; for IC50: MCF7, 72 h, read-out: IC50 (μM) MCF-7
Description: (§1) A549 cells (human lung carcinoma cells), MCF-7 cells (human breast cancer cells), HeLa cells (human cervical cancer cells), HepG2 cells (human hepatocellular carcinoma cells), and HUVEC cells (human umbilical vein endothelial cells) were kindly provided by WeiFang Caleb Pharmaceuticals, Inc. A549 cells were cultured in Ham's F12K medium containing 10% fetal bovine serum, 2 mM L-glutamine, and 1.5 g/L sodium bicarbonate; MCF-7 cells were cultured on cell culture flask using RPMI 1640 medium with 2 mM L-glutamine adjusted to contain 1.5 g/L sodium bicarbonate, 4.5 g/L glucose, 10 mM HEPES, 1.0 mM sodium pyruvate, and 10% fetal bovine serum. Hela cells were cultured on Cell culture flask using 2 mM L-glutamine adjusted to contain 1.5 g/L sodium bicarbonate, 4.5 g/L glucose, 10 mM HEPES, and 1.0 mM sodium pyruvate in RPMI 1640 medium supplemented with 0.5 mg/ml G418 and 10% fetal bovine serum. HepG2 cells were cultured in minimum essential medium (Eagle) with 2 mM L-glutamine, Earle's BSS, 1.5 g/L sodium bicarbonate, 0.1 mM non-essential amino acids, 1.0 mM sodium pyruvate, and 10% fetal bovine serum. HUVEC cells were cultured in M199 medium containing 2 mM L-glutamine adjusted to contain 1.5 g/L sodium bicarbonate, 4.5 g/L glucose, 10 mM HEPES, 1.0 mM sodium pyruvate, ECGS, and 10% fetal bovine serum. All cells were cultured at 37°C in 5% CO2.
(§2) The cell proliferation of adherent cells was determined by sulforhodamine B assay (SRB) (Quan et al., [2009]; Li et al., [2017]). All cells were cultured in culture medium containing 10% fetal bovine serum and have been in the logarithmic growth phase. All cell types were seeded in a 96-well culture plate at a concentration of 1–5 × 10^4 cells per well at 37°C in a 5% CO2 incubator for 24 h. The cells were then exposed to seven drug concentrations of dihomooxacalix[4]arene derivatives for 72 h with each concentration located in three wells. Then, the cells were fixed with trichloroacetic acid (TCA). After washing, SRB working solution was added to the cells to […]. SRB combined with protein was dissolved in Tris base. OD values were measured for each well with a SPECTRA max 190 Cell microplate reader under 540 nm wavelength. According to the OD value, the cell growth inhibition rate was calculated.

[2] = tested on: HeLa cells (human cervical cancer cells); assay: SRB cytotoxicity assay, HeLa cells; assay type: cell-based; conditions: 72 h, SRB; for IC50: read-out: IC50 (μM) HeLa
Description: as §1, §2

[3] = tested on: A549, MCF-7, HeLa and HepG2 cells; assay: SRB cytotoxicity assay, four tumor cell types taken together; assay type: cell-based; conditions: Homo sapiens, 72 h, range over A549, MCF-7, HeLa, read-out: single concentration inhibition on the four tumor cells
Description: as §1, with “HepG2 cells were cultured in minimum essential medium (Eagle) with 2 mM L-glutamine, Earle's BSS, 1.5 g/L sodium bicarbonate, 0.1 mM non-essential amino acids, 1.0 mM sodium pyruvate, and 10% fetal bovine serum. HUVEC cells were cultured in M199 medium containing 2 mM L-glutamine adjusted to contain 1.5 g/L sodium bicarbonate, 4.5 g/L glucose, 10 mM HEPES, 1.0 mM sodium pyruvate, ECGS, and 10% fetal bovine serum. All cells were cultured at 37°C in 5% CO2.” left out
The cell proliferation of adherent cells was determined by sulforhodamine B assay (SRB) (Quan et al., [2009]; Li et al., [2017]). […] OD values were measured for each well with a SPECTRA max 190 Cell microplate reader under 540 nm wavelength. According to the OD value, the cell growth inhibition rate was calculated.

[4] = tested on: HUVEC cells (human umbilical vein endothelial cells); assay: SRB cytotoxicity assay, HUVEC normal cells; assay type: cell-based; conditions: Homo sapiens, HUVEC, 72 h, 10 μM, SRB; toxicity to normal cells
Description: as §1, §2

[5] = tested on: HepG2 cells (human hepatocellular carcinoma cells); assay: SRB cytotoxicity assay, HepG2 cells; assay type: cell-based; conditions: 72 h, SRB; for IC50: read-out: IC50 (μM) HepG2
Description: as §1, §2

[6] = tested on: A549 cells (human lung carcinoma cells); assay: SRB cytotoxicity assay, A549 cells; assay type: cell-based; conditions: 72 h, SRB; for IC50: read-out: IC50 (μM) A549
Description: as §1, §2

MCF-7 cells [7] = assay: Flow cytometry for cell apoptosis analysis (annexin V-FITC/PI); assay type: cell-based, human; conditions: 48 h, non-treated 14.50 ± 0.68%
Description: MCF-7 cells (5 × 10^5 cells/ml) were seeded in six-well plates and treated with compounds at different concentrations for 48 h. The cells were then harvested by trypsinization and washed twice with cold PBS. After centrifugation and removal of the supernatants, cells were resuspended in 400 μl of 1 × binding buffer, which was then added to 5 μl of annexin V-FITC and incubated at room temperature for 15 min. After adding 10 μl of PI, the cells were incubated at room temperature for another 15 min in the dark. The stained cells were analyzed by a flow cytometer (BD Accuri C6).

MCF-7 cells [8] = assay: Flow cytometry for cell cycle analysis (PI); assay type: cell-based, human; conditions: 3 μM, 48 h; for percentage of cells in G0/G1 phase: non-treated 61.36 ± 3.65%
Description: For flow cytometric analysis of DNA content, MCF-7 cells in exponential growth were treated with compound for 48 h. The cells treated with compound were collected, washed twice with PBS, and then fixed with 75% alcohol overnight. Then, the cells were washed with PBS and resuspended in 100 μl of PBS, 200 mg/ml RNase was added for 30 min to eliminate the interference of RNA, and 20 ml/L propidium iodide (PI; Sigma) was added for 30 min. Then, the cells were washed, and the DNA content was detected by a flow cytometer (BD Accuri C6).

SMILES	melting point [°C]	inhibition at 10 µM [1] [%]	IC50 [1] [µM]	inhibition at 10 µM [2] [%]	IC50 [2] [µM]	inhibition at 10 µM [3] [%]	inhibition at 10 µM [4] [%]	inhibition at 10 µM [5] [%]	IC50 [5] [µM]	inhibition at 10 µM [6] [%]	IC50 [6] [µM]	apoptotic rate (MCF-7 cells [7]; 1 μM) [%]	apoptotic rate (MCF-7 cells [7]; 3 μM) [%]	apoptotic rate (MCF-7 cells [7]; 10 μM) [%]	percentage of cells in G2/M phase (MCF-7 cells [8]; non-treated 10.06 ± 0.91) [%]	percentage of cells in S phase (MCF-7 cells [8]; non-treated 24.69 ± 6.30%) [%]	percentage of cells in G0/G1 phase (MCF-7 cells [8]) [%]
CC(C)(C)c1cc2c(O)c(c1)Cc1cc(C(C)(C)C)cc(c1OCC(=O)NCCCCCCN)Cc1cc(C(C)(C)C)cc(c1O)Cc1cc(C(C)(C)C)cc(c1OCC(=O)NCCCCCCN)COC2 [Compound 4D, 7,13,19,25-tetra-tert-butyl-28,30-di-hydroxy-27,29-di-(N-(6-aminohexyl)-aminocarbonylmethoxyl)-2,3-dihomo-3-oxa calix[4] arene]	123.3 to 125.9	99	1.8 ± 0.7	100	1.9 ± 0.1		90	72	2.6 ± 0.2	99	0.7 ± 0.1		33.55 ± 0.78	61.15 ± 2.76			73.56 ± 3.95
CCCCCNC(=O)COc1c2cc(C(C)(C)C)cc1Cc1cc(C(C)(C)C)cc(c1O)Cc1cc(C(C)(C)C)cc(c1OCC(=O)NCCCCC)Cc1cc(C(C)(C)C)cc(c1O)COC2 [Compound 4L, 7,13,19,25-tetra-tert-butyl-28,30-di-hydroxy-27,29-di-(N-pentyl-aminocarbonylmethoxyl)-2,3-dihomo-3-oxacalix[4] arene]	117.7 to 119.3	41		49			12	18		66	1.7 ± 0.4						
CC(C)(C)c1cc2c(O)c(c1)Cc1cc(C(C)(C)C)cc(c1OCC(=O)NC1CCCC1)Cc1cc(C(C)(C)C)cc(c1O)Cc1cc(C(C)(C)C)cc(c1OCC(=O)NC1CCCC1)COC2 [Compound 4M, 7,13,19,25-tetra-tert-butyl-28,30-di-hydroxy-27,29-di-(N-clopentyl-aminocarbonylmethoxyl)-2,3-dihomo-3-oxacalix[4]arene]	145.9 to 148.2	29		52			14	12		66	10.1 ± 1.8						
COc1ccc(CCNC(=O)COc2c3cc(C(C)(C)C)cc2Cc2cc(C(C)(C)C)cc(c2O)Cc2cc(C(C)(C)C)cc(c2OCC(=O)NCCc2ccc(OC)c(OC)c2)Cc2cc(C(C)(C)C)cc(c2O)COC3)cc1OC [Compound 4P, 7,13,19,25-tetra-tert-butyl-28,30-di-hydroxy-27,29-di-(N-(3,4-dimethoxyphenethyl)-aminocarbonylmethoxyl)-2,3-dihomo-3-oxacalix [4]arene]	117.4 to 120.1	0		37			0	11		22							

The next lines start with results.

melting point [°C]	SMILES	inhibition at 10 µM [1] [%]	IC50 [1] [µM]	inhibition at 10 µM [2] [%]	IC50 [2] [µM]	inhibition at 10 µM [3] [%]	inhibition at 10 µM [4] [%]	inhibition at 10 µM [5] [%]	IC50 [5] [µM]	inhibition at 10 µM [6] [%]	IC50 [6] [µM]	apoptotic rate (MCF-7 cells [7]; 1 μM) [%]	apoptotic rate (MCF-7 cells [7]; 3 μM) [%]	apoptotic rate (MCF-7 cells [7]; 10 μM) [%]	percentage of cells in G2/M phase (MCF-7 cells [8]; non-treated 10.06 ± 0.91) [%]	percentage of cells in S phase (MCF-7 cells [8]; non-treated 24.69 ± 6.30%) [%]	percentage of cells in G0/G1 phase (MCF-7 cells [8]) [%]
139.7 to 142.3	CC(C)(C)c1cc2c(O)c(c1)Cc1cc(C(C)(C)C)cc(c1OCC(=O)NCCO)Cc1cc(C(C)(C)C)cc(c1O)Cc1cc(C(C)(C)C)cc(c1OCC(=O)NCCO)COC2 [Compound 4A, 7,13,19,25-tetra-tert-butyl-28,30-di-hydroxy-27,29-di-(N-(2-hydroxyethyl)-aminocarbonylmethoxyl)-2,3-dihomo-3-oxacalix[4]arene]	100	1 ± 0.1	100	0.8 ± 0.2	86 to 100	41	86	2.7 ± 0.4	100	2 ± 0.5	19.63 ± 0.11	15.40 ± 0.13	40.74 ± 0.38	1.87 ± 2.45	20.68 ± 13.12	71.39 ± 11.21
183.7 to 186.4	CC(C)(C)c1cc2c(O)c(c1)Cc1cc(C(C)(C)C)cc(c1OCC(=O)NCc1ccccc1)Cc1cc(C(C)(C)C)cc(c1O)Cc1cc(C(C)(C)C)cc(c1OCC(=O)NCc1ccccc1)COC2 [Compound 4N, 7,13,19,25-tetra-tert-butyl-28,30-di-hydroxy-27,29-di-(N-benzyl-aminocarbonylmethoxyl)-2,3-dihomo-3-oxacalix[4] arene]	43		49			21	10		64	6.8 ± 0.5						
114.6 to 115.9	CC(C)(C)c1cc2c(O)c(c1)Cc1cc(C(C)(C)C)cc(c1OCC(=O)NCCc1ccccc1)Cc1cc(C(C)(C)C)cc(c1O)Cc1cc(C(C)(C)C)cc(c1OCC(=O)NCCc1ccccc1)COC2 [Compound 4O, 7,13,19,25-tetra-tert-butyl-28,30-di-hydroxy-27,29-di-(N-phenethyl-aminocarbonylmethoxyl)-2,3-dihomo-3-oxacalix [4]arene]	45		60			35	9		63	12.6 ± 2						
